In patent US8163793B2, “Proline derivatives” (Hoffman-La Roche Inc., priority 2009, dated 2012):

Legend:
Cathepsin S = Cathepsin S (UniProt P25774); assay: Cathepsin enzyme inhibition assay (fluorogenic peptide substrate Z-Val-Val-Arg-AMC), Cathepsin S; type: biochemical, human and mouse; settings: enzyme 1 nM, substrate 20 μM, pH 6.5; read-out: CatS IC50
How it was run: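 Compounds were combined with 1 nM human or mouse enzyme, and substrate then started the reaction. The buffer was potassium phosphate (100 mM, pH 6.5) containing EDTA-Na 5 mM, Triton X-100 0.001% and […] 5 mM.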

Cat L = Cat L (UniProt P07711); assay: Cathepsin enzyme inhibition assay (fluorogenic peptide substrate Z-Val-Val-Arg-AMC), Cathepsin L; type: biochemical, human and mouse; settings: enzyme 1 nM, substrate 20 μM, pH 6.5; read-out: CatL IC50
How it was run: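 Fluorogenic cleavage of Z-Val-Val-Arg-AMC (20 μM) by 1 nM Cat L was monitored at ex 360/em 465 nm for 20 min, the linear phase. The buffer was 100 mM potassium phosphate pH 6.5 with 5 mM EDTA and DTT. IC50 values were derived by standard methods, in μM.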

SMILES | IC50 (Cathepsin S) [nM] | IC50 (Cat L) [nM]
CN1CCN(c2ccc(S(=O)(=O)[C@@H]3C[C@@H](C(=O)NC4(C#N)CC4)N(C(=O)C4(C(F)(F)F)CC4)C3)c(C(F)(F)F)c2)CC1 [Example 260, (2S,4R)-4-[4-(4-Methyl-piperazin-1-yl)-2-trifluoromethyl-benzenesulfonyl]-1-(1-trifluoromethyl-cyclopropanecarbonyl)-pyrrolidine-2-carboxylic acid (1-cyano-cyclopropyl)-amide] | 0.245 | 16500
Cc1cc(N2C[C@H](S(=O)(=O)c3ccccc3)C[C@H]2C(=O)NC2(C#N)CC2)n(-c2ccc(C(F)(F)F)cc2)n1 [Example 261, (2S,4R)-4-Benzenesulfonyl-1-[5-methyl-2-(4-trifluoromethyl-phenyl)-2H-pyrazol-3-yl]-pyrrolidine-2-carboxylic acid (1-cyano-cyclopropyl)-amide] | 12 | 27000
Cc1cc(N2C[C@H](S(=O)(=O)c3ccccc3)C[C@H]2C(=O)NC2(C#N)CC2)n(-c2ccnc(Cl)c2)n1 [Example 262, (2S,4R)-4-Benzenesulfonyl-1-[2-(2-chloro-pyridin-4-yl)-5-methyl-2H-pyrazol-3-yl]-pyrrolidine-2-carboxylic acid (1-cyano-cyclopropyl)-amide] | 4.4 | 28700
CC(C)(C)OC(=O)N[C@H]1CC[C@H](CC(=O)N2C[C@H](S(=O)(=O)c3ccc(OCC(F)(F)F)cc3Cl)C[C@H]2C(=O)NC2(C#N)CC2)CC1 [Example 264, (4-{2-[(2S,4R)-4-[2-Chloro-4-(2,2,2-trifluoro-ethoxy)-benzenesulfonyl]-2-(1-cyano-cyclopropylcarbamoyl)-pyrrolidin-1-yl]-2-oxo-ethyl}-cyclohexyl)-carbamic Acid Tert-butyl ester] | 0.495 | 8380
N#CC1(NC(=O)[C@@H]2C[C@@H](S(=O)(=O)c3ccc(OCC(F)(F)F)cc3Cl)CN2C(=O)C[C@H]2CC[C@H](N)CC2)CC1 [Example 265, (2S,4R)-1-[2-(4-Amino-cyclohexyl)-acetyl]-4-[2-chloro-4-(2,2,2-trifluoro-ethoxy)-benzenesulfonyl]-pyrrolidine-2-carboxylic acid (1-cyano-cyclopropyl)-amide] | 1.35 | 2050

The remaining lines, values ahead:

IC50 (Cathepsin S) [nM] | IC50 (Cat L) [nM] | SMILES
1.3 | 22100 | Cc1cc(N2C[C@H](S(=O)(=O)c3ccc(F)cc3C(F)(F)F)C[C@H]2C(=O)NC2(C#N)CC2)n(-c2ccnc(Cl)c2)n1 [Example 266, (2S,4R)-1-[2-(2-Chloro-pyridin-4-yl)-5-methyl-2H-pyrazol-3-yl]-4-(4-fluoro-2-trifluoromethyl-benzenesulfonyl)-pyrrolidine-2-carboxylic acid (1-cyano-cyclopropyl)-amide]
2.3 | 7810 | Cc1cc(N2C[C@H](S(=O)(=O)c3ccc(F)cc3C(F)(F)F)C[C@H]2C(=O)NC2(C#N)CC2)n(-c2ccc(C(F)(F)F)cc2)n1 [Example 267, (2S,4R)-4-(4-Fluoro-2-trifluoromethyl-benzenesulfonyl)-1-[5-methyl-2-(4-trifluoromethyl-phenyl)-2H-pyrazol-3-yl]-pyrrolidine-2-carboxylic acid (1-cyano-cyclopropyl)-amide]
2.35 | 47300 | Cc1cc(N2C[C@H](S(=O)(=O)c3ccccc3C(F)(F)F)C[C@H]2C(=O)NC2(C#N)CC2)n(C(C)C)n1 [Example 268, (2S,4R)-1-(2-Isopropyl-5-methyl-2H-pyrazol-3-yl)-4-(2-trifluoromethyl-benzenesulfonyl)-pyrrolidine-2-carboxylic acid (1-cyano-cyclopropyl)-amide]
1.6 | 75100 | Cc1cc(N2C[C@H](S(=O)(=O)c3ccccc3C(F)(F)F)C[C@H]2C(=O)NC2(C#N)CC2)n(CC(F)(F)F)n1 [Example 269, (2S,4R)-1-[5-Methyl-2-(2,2,2-trifluoro-ethyl)-2H-pyrazol-3-yl]-4-(2-trifluoromethyl-benzenesulfonyl)-pyrrolidine-2-carboxylic acid (1-cyano-cyclopropyl)-amide]
